Values of other authors in patent US20050170064A1, “Plant sterol-containing food, and method for preparing the same” (Eugene Science Inc., priority 2002, published 2005).

Tested on: LDL-C level
Details: applied form in an oil phase (margarine)

Substance: sitostanol fatty acid ester
- Reduction of the LDL-C level: ≤ 16%
